Measured values: PubChem BioAssay (NCI)
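Where inhibition never reached the appropriate level, the endpoint shown equals the highest concentration tested. Otherwise, values were interpolated linearly from a five-concentration, 48-hour dose response in 96-well plates. Here, GI50 denotes the concentration required for 50% inhibition of growth. TGI marks complete inhibition of growth.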

What was measured:
Experiment in all cases: inhibition of tumour cell growth, NCI panel, 48 h
CCRF-CEM leukemia = test system: CCRF-CEM leukemia
HCC-2998 colon = test system: HCC-2998 colon
MDA-MB-435 = test system: MDA-MB-435
MOLT-4 leukemia = test system: MOLT-4 leukemia
NCI-H23 lung = test system: NCI-H23 lung
OVCAR-3 ovarian = test system: OVCAR-3 ovarian
SK-MEL-28 melanoma = test system: SK-MEL-28 melanoma
SK-MEL-5 melanoma = test system: SK-MEL-5 melanoma
T-47D breast = test system: T-47D breast
TK-10 renal = test system: TK-10 renal

Compound	GI50 (CCRF-CEM leukemia) [µM]	TGI (CCRF-CEM leukemia) [µM]	GI50 (HCC-2998 colon) [µM]	TGI (HCC-2998 colon) [µM]	GI50 (MDA-MB-435) [µM]	TGI (MDA-MB-435) [µM]	GI50 (MOLT-4 leukemia) [µM]	TGI (MOLT-4 leukemia) [µM]	GI50 (NCI-H23 lung) [µM]	TGI (NCI-H23 lung) [µM]	GI50 (OVCAR-3 ovarian) [µM]	TGI (OVCAR-3 ovarian) [µM]	GI50 (SK-MEL-28 melanoma) [µM]	TGI (SK-MEL-28 melanoma) [µM]	GI50 (SK-MEL-5 melanoma) [µM]	TGI (SK-MEL-5 melanoma) [µM]	GI50 (T-47D breast) [µM]	TGI (T-47D breast) [µM]	GI50 (TK-10 renal) [µM]	TGI (TK-10 renal) [µM]
COc1ccc2c3c(Nc4cccc(/C(C)=N\O)c4)[nH]c4ccccc4c-3c(N=O)c2c1	13.6	> 100	10.6	22.4	30.9	> 100	7	62.2	0.752	27.1	33.2	88.2	12.7	42.7	29.8	> 100	16.9	> 100	80.3	> 100
COc1cc(C2c3cc4c(cc3[C@@H](Nc3cccc(CO)c3)C3COC(=O)[C@H]23)OCO4)cc(OC)c1O (stereo partly specified)	–	0.732	–	3.79	–	–	–	0.185	–	2.77	–	13.4	–	22.7	–	2.28	–	–	–	–
CC(CC(N)C(=O)O)C(=O)O (stereo unspecified)	–	> 100	–	–	–	> 100	–	> 100	–	> 100	–	> 100	–	> 100	–	> 100	–	> 100	–	> 100
COc1cc(OC)cc(-c2ccc(-c3ccc(C(=N)N)cn3)o2)c1	2.06	4.6	–	–	1.55	2.99	1.74	3.59	–	–	1.89	3.46	1.65	3.16	1.6	2.97	–	–	1.79	3.26
OCC1COc2cc(Cl)c(Cl)cc2O1 (stereo unspecified)	–	> 10	–	> 10	–	> 10	–	> 10	–	> 10	–	> 10	–	> 10	–	> 10	–	> 10	–	> 10
CSCC[C@@H]1C(=O)N(C)[C@H](C(C)(C)C)N1C(=O)c1ccccc1	–	> 100	–	> 100	–	–	–	> 100	–	> 100	–	> 100	–	> 100	–	> 100	–	–	–	–
COc1nc2cccc(C(O)c3ccccc3)c2nc1-c1ccccc1 (stereo unspecified)	–	10.8	–	–	–	4.79	–	34.7	–	35.5	–	20.4	–	> 100	–	13.1	–	61.6	–	> 100
CC1(C)[C@@H]2CC[C@]1(C)[C@H](OC(=O)/C=C/c1ccccc1)C2	–	41.6	–	30.7	–	77.7	–	–	–	50.8	–	19.6	–	50.4	–	30.5	–	34.2	–	> 100
COc1cc(C(=O)O[C@H](C(=O)NCCCNC(=O)[C@@H](OC(=O)c2cc(OC)cc3c(C)cccc23)[C@]2(C)CO2)[C@]2(C)CO2)c2cccc(C)c2c1	< 0.01	–	< 0.0198	0.224	–	0.503	< 0.01	< 0.01	< 0.01	0.0224	–	–	< 0.0375	0.142	< 0.0154	0.178	0.0595	0.839	0.0275	0.28
